The values below are quoted from earlier work in US8901128B2, “Pharmaceutical compositions of ranolazine” (Lupin Limited, priority 2009, dated 2014).

Structures are written as SMILES.

For data set [1] the following is noted: low pH that occurs in the stomach.
For data set [2] the following is noted: in vivo.
Data set [3] relates to humans suffering from angina. The note with it: administered as an IR formulation; 120 mg three times daily.

With `COc1ccccc1OCC(O)CN1CCN(CC(=O)Nc2c(C)cccc2C)CC1` (racemic) [ranolazine, (±)-N-(2,6-dimethylphenyl)-4-[2-hydroxy-3-(2-methoxyphenoxy)-propyl]-1-piperazineacetamide], the solubility entry in data set [1] is “relatively high”. Further, the plasma half-life result in data set [2] is “relatively short”. The “antianginal and anti-ischemic efficacy” value in data set [3] was “ineffective”.
